In PubChem BioAssay (NCI) one finds TGI and GI50 data, which are given here for 18 compounds.

Test systems include DMS 114 small cell lung; LXFL 529 NSCLC; M19-MEL melanoma; SNB-78 CNS; XF 498 CNS; DMS 273 small cell lung; KM20L2 colon; NCI-H226 lung; MCF7 breast; NCI/ADR-RES ovarian.
Holding throughout (experiment): DTP human tumour cell line panel, 48 h

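Method: 48-hour compound exposure of cells in 96-well plates, five concentrations, linear interpolation of endpoints. GI50 marks 50% less growth. TGI marks complete inhibition of growth.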 Where only a bound is given, the exact number is not on record here.

Regarding `Cc1cccc(NC(N)=S)c1`, the total growth inhibition concentration (TGI) in the assay on DMS 114 small cell lung, in the assay with LXFL 529 NSCLC, with M19-MEL melanoma, in the assay with SNB-78 CNS and with XF 498 CNS was more than 100 µM throughout.
For `O=C(O)\C=C/C=C/C=C/C=C/C(=O)O`, the concentration for total growth inhibition (TGI) in the assay on DMS 114 small cell lung, with DMS 273 small cell lung, in the assay with KM20L2 colon, in the assay on LXFL 529 NSCLC, in the assay with NCI-H226 lung and in the assay with SNB-78 CNS was more than 100 µM each time.
Take `COc1ccc(C(=O)NNC(=O)c2nsc3ccccc23)cc1`: the TGI with DMS 114 small cell lung, in the assay with DMS 273 small cell lung, in the assay on KM20L2 colon, in the assay on LXFL 529 NSCLC, with M19-MEL melanoma and in the assay on SNB-78 CNS was more than 100 µM in each case.
In the case of `N=C(N)SC(c1ccccc1)c1ccccc1`, the TGI with MCF7 breast is 30 µM; in the assay with NCI-H226 lung, 60.9 µM; with NCI/ADR-RES ovarian it was 47 µM.
Consider `Cn1ncc2c(=O)[nH]c(-c3ccccc3)nc21`, for which the TGI in the assay with DMS 114 small cell lung, in the assay with DMS 273 small cell lung, in the assay on KM20L2 colon, in the assay on SNB-78 CNS and in the assay with XF 498 CNS was more than 100 µM in each case.
Take `NS(=O)(=O)c1ccc(C(=O)O)cc1`: the concentration for total growth inhibition (TGI) in the assay on MCF7 breast and with NCI/ADR-RES ovarian was more than 100 µM each time.
Regarding `COc1ccc2c(c1)C(=O)c1c-2n(CCCCl)c(=O)c2cc([N+](=O)[O-])ccc12`, the GI50 in the assay on MCF7 breast was less than 10 nM; in the assay with NCI-H226 lung, less than 10 nM; with NCI/ADR-RES ovarian, 81.5 nM. In the assay with NCI-H226 lung, this compound showed a TGI of more than 100 µM.
Turning to `CC(C)(c1ccccc1)c1ccc(Oc2ccc3c(c2)-c2nc-3nc3[nH]c(nc4nc(nc5[nH]c(n2)c2ccc(Oc6ccc(C(C)(C)c7ccccc7)cc6)cc52)-c2cc(Oc5ccc(C(C)(C)c6ccccc6)cc5)ccc2-4)c2ccc(Oc4ccc(C(C)(C)c5ccccc5)cc4)cc32)cc1`, the concentration for total growth inhibition (TGI) in the assay with DMS 273 small cell lung, in the assay with KM20L2 colon, with LXFL 529 NSCLC, with M19-MEL melanoma, in the assay with SNB-78 CNS and in the assay on XF 498 CNS was more than 100 µM each time.
As to `Nc1ccc([As](=O)(O)O)cc1`, the TGI in the assay with MCF7 breast, in the assay with NCI-H226 lung and in the assay with NCI/ADR-RES ovarian was more than 100 µM in each case.
On to `Cc1nc2ccccc2c(=O)n1Nc1ccc(C(=O)O)cc1`, for which the TGI in the assay with DMS 114 small cell lung, with DMS 273 small cell lung, in the assay on KM20L2 colon, in the assay with M19-MEL melanoma, with MCF7 breast and in the assay on NCI-H226 lung was more than 100 µM each time. The TGI with NCI/ADR-RES ovarian, in the assay on SNB-78 CNS and in the assay with XF 498 CNS was more than 100 µM each time.
Turning to `COc1cc2c(cc1OCCCOc1cc3c(cc1OC)C(=O)N1CC(F)(F)C[C@H]1C=N3)N=C[C@@H]1CC(F)(F)CN1C2=O`, in the assay on MCF7 breast, the GI50 is 195 nM and the TGI was 11.4 µM. For the same compound, in the assay with NCI/ADR-RES ovarian, the GI50 is 21400 nM and the total growth inhibition concentration (TGI) was more than 84 µM.
As to `O=C1CC(c2ccccc2)NCCCCN2CC(CN1)C(C(O)c1ccccc1)C2=O` (centres undefined), the TGI in the assay with MCF7 breast, with NCI-H226 lung and in the assay on NCI/ADR-RES ovarian was more than 100 µM throughout.
On to `CC1(C)CCc2cc3c(cc2O1)OC(C)(C)CC3=O`, for which the TGI in the assay on DMS 114 small cell lung, in the assay with DMS 273 small cell lung, in the assay on LXFL 529 NSCLC, in the assay on M19-MEL melanoma, in the assay with NCI-H226 lung and with XF 498 CNS was more than 100 µM each time.
Consider `Cc1cc(N2CCCCC2)nc(NCc2cc(Nc3ccnc4cc(Cl)ccc34)ccc2F)n1`, for which the GI50 in the assay with MCF7 breast is 298 nM; in the assay with NCI-H226 lung, 2020 nM; in the assay on NCI/ADR-RES ovarian, 2000 nM. For the same compound, the TGI came out at 1.46 µM in the assay with MCF7 breast, 4.57 µM in the assay with NCI-H226 lung and 4.74 µM with NCI/ADR-RES ovarian.
`CCc1cc(C)cc2[n+]1CC=C2C`: the TGI with DMS 273 small cell lung, with KM20L2 colon, with LXFL 529 NSCLC, in the assay with M19-MEL melanoma, in the assay on NCI-H226 lung and in the assay with SNB-78 CNS was more than 100 µM in each case.
`CC1(C)CCCC2(C)C3=C(CCC12)C(=O)OC3` (centres undefined): the total growth inhibition concentration (TGI) with MCF7 breast, with NCI-H226 lung and with NCI/ADR-RES ovarian was more than 100 µM throughout.
With `CCCCCCCCCCCCCCC(C(=O)[O-])[n+]1ccccc1` (centres undefined), the values for the concentration for total growth inhibition (TGI) in the assay on MCF7 breast, in the assay on NCI-H226 lung and with NCI/ADR-RES ovarian were 50.9 µM, more than 100 µM and more than 100 µM, respectively.
On to `CN(C)C=O.CN(C)C=O.CN1C(C(=O)Nc2ccccn2)=C([O-])c2ccccc2S1(=O)=O.CN1C(C(=O)Nc2ccccn2)=C([O-])c2ccccc2S1(=O)=O.[Cu+2]`, for which the GI50 was 32.2 µM in the assay with DMS 114 small cell lung; 35.9 µM in the assay with DMS 273 small cell lung; more than 100 µM in the assay on KM20L2 colon; 27.8 µM in the assay on LXFL 529 NSCLC; 31 µM in the assay with M19-MEL melanoma; 64.3 µM in the assay on SNB-78 CNS. Further, the GI50 with XF 498 CNS was 18.8 µM. Also, the TGI in the assay with DMS 114 small cell lung, with DMS 273 small cell lung, in the assay with KM20L2 colon, in the assay with LXFL 529 NSCLC, in the assay on M19-MEL melanoma and with SNB-78 CNS was more than 100 µM throughout. The TGI with XF 498 CNS stood at 34.4 µM.
